Measured values reported in patent US11220510B2, “Pyrrole tricyclic compounds as A2A / A2B inhibitors” (Incyte Corporation, priority 2018, dated 2022).

Key:
[1] = target: Adenosine A2A receptor (Tag-lite Adenosine A2A labeled cells) (Homo sapiens (Human), UniProt P29274); assay: A2A Tag-lite HTRF assay (fluorescent ligand displacement); conditions: Red antagonist fluorescent ligand 12.5 nM, one-site competitive binding model, read-out: A2A_Ki
Description: Example C. A2A Tag-Lite® HTRF Assay
The final concentration of DMSO was 1%.

[2] = target: human adenosine A2B receptor (Homo sapiens (Human), UniProt P29275); assay: Adenosine A2B Receptor Cyclic AMP GS Assay; type: cell-based; conditions: HEK-293 cells expressing human A2B; agonist NECA 12 nM; cAMP accumulation by FRET; read-out: A2B_cAMP_EC50
Chain of human adenosine A2B receptor (P29275 whole entry): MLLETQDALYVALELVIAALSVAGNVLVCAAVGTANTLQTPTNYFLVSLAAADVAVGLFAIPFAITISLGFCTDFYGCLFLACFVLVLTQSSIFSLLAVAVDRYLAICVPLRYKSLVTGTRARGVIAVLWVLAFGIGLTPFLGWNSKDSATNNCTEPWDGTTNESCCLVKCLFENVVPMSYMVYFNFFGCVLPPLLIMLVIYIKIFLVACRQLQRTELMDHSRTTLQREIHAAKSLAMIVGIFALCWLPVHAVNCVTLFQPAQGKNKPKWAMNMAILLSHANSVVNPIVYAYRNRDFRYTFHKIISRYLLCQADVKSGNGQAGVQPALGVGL
Procedure: Example B. Adenosine A2B Receptor Cyclic AMP GS Assay Stably transfected HEK-293 cells expressing the human adenosine A2B receptor (Perkin Elmer) were maintained in MEM culture medium with 10% FBS and 100 μg/ml Geneticin (Life Technologies). 18 to 24 hours prior to assay, geneticin was removed from culture. The cisbio cAMP-GS Dynamic kit utilizing the FRET (Fluorescence Resonance Energy Transfer) technology was used to measure cAMP accumulation in the cells. Compounds of the present disclosure at an appropriate concentration were mixed with 10000 cells/well in white 96 well half area plates (Perkin Elmer) for 30 min at room temperature gently shaking. Agonist, NECA (R&D Technologies) at 12 nM was added to each well for 60 min at room temperature gently shaking. Detection reagents, d2-labeled cAMP (acceptor) and anti-cAMP cryptate (donor) were added to each well for 60 min at RT gently shaking. Plates were read on Pherastar (BMG Labtech), fluorescence ratio 665/620 was calculated and EC50 determination was performed by fitting the curve of percent of control versus the log of the compound concentration using GraphPad Prism.

Chain of Adenosine A2A receptor (Tag-lite Adenosine A2A labeled cells) (P29274 whole entry): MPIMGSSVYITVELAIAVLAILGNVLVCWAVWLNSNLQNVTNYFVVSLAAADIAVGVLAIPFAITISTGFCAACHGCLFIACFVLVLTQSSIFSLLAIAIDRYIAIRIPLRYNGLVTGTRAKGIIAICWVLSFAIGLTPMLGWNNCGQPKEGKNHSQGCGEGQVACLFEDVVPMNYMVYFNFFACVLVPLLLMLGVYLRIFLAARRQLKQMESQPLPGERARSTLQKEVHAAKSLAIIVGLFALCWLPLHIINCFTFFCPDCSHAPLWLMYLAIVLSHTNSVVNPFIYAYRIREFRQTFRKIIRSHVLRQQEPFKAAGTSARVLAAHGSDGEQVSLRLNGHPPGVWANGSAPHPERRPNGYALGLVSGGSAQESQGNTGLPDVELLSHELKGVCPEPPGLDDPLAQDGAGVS

SMILES | Ki [1] [nM] | EC50 [2] [nM]
CCCCn1c2cc(-c3cnn(C4CN(c5nccc(N)n5)C4)c3)[nH]c2c(=O)n2c(C)nnc12 [Example 28, 7-(1-(1-(4-Aminopyrimidin-2-yl)azetidin-3-yl)-1H-pyrazol-4-yl)-9-butyl-3-methyl-6,9-dihydro-5H-pyrrolo[3,2-d][1,2,4]triazolo[4,3-a]pyrimidin-5-one] | < 10 | 10 to 100
CCCCn1c2cc(-c3cnn(C4CN(c5ncc(F)c(N)n5)C4)c3)[nH]c2c(=O)n2c(C)nnc12 [Example 29, 7-(1-(1-(4-Amino-5-fluoropyrimidin-2-yl)azetidin-3-yl)-1H-pyrazol-4-yl)-9-butyl-3-methyl-6,9-dihydro-5H-pyrrolo[3,2-d][1,2,4]triazolo[4,3-a]pyrimidin-5-one] | < 10 | 10 to 100
CCCCCn1c2cc(-c3cnn(Cc4ccc5c(c4)CCN(C(=O)CN(C)C)C5)c3)[nH]c2c(=O)n2c(C)nnc12 [Example 30, 7-(1-((2-(2-(Dimethylamino)acetyl)-1,2,3,4-tetrahydroisoquinolin-6-yl)methyl)-1H-pyrazol-4-yl)-3-methyl-9-pentyl-6,9-dihydro-5H-pyrrolo[3,2-d][1,2,4]triazolo[4,3-a]pyrimidin-5-one] | < 10 | < 10
